Laboratory results from patent US20250340552A1, “COMPOUNDS, COMPOSITIONS AND METHODS OF TREATING DISORDERS” (HOTSPOT THERAPEUTICS, INC., priority 2022, published 2025).
Like-named read-outs stand apart in the source and are kept apart here.

Target: T1, Cbl-B (Homo sapiens, UniProt Q13191)
T1 construct: MSD-Based Assay for Degradation of Cbl-B in THP-1 Cells; endogenous in cells; host or cells: THP-1 (title) / Jurkat (protocol text)
Assay: MSD-based assay for degradation of Cbl-B in THP-1 cells
Assay type: cell-based
Procedure, shortened: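 THP-1 cells were treated with compound for 24 h at 37 °C. Cbl-B in lysates was quantified by MSD sandwich immunoassay, with anti-Cbl-B capture antibody at 1 ug/mL and SULFO-TAG anti-rabbit detection. Maximal degradation (Dmax) was binned as A >70%, B 50–70%, C 30–50%, D <30%.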

[1] = Cbl-B degradation, Jurkat cells seeded (heading: THP-1 cells), 24 hours incubation, MSD readout
[2] = Cbl-B degradation, Jurkat cells seeded (heading: THP-1 cells), 24 hours incubation, MSD readout, read-out: Dmax

T1 sequence (Q13191 whole entry): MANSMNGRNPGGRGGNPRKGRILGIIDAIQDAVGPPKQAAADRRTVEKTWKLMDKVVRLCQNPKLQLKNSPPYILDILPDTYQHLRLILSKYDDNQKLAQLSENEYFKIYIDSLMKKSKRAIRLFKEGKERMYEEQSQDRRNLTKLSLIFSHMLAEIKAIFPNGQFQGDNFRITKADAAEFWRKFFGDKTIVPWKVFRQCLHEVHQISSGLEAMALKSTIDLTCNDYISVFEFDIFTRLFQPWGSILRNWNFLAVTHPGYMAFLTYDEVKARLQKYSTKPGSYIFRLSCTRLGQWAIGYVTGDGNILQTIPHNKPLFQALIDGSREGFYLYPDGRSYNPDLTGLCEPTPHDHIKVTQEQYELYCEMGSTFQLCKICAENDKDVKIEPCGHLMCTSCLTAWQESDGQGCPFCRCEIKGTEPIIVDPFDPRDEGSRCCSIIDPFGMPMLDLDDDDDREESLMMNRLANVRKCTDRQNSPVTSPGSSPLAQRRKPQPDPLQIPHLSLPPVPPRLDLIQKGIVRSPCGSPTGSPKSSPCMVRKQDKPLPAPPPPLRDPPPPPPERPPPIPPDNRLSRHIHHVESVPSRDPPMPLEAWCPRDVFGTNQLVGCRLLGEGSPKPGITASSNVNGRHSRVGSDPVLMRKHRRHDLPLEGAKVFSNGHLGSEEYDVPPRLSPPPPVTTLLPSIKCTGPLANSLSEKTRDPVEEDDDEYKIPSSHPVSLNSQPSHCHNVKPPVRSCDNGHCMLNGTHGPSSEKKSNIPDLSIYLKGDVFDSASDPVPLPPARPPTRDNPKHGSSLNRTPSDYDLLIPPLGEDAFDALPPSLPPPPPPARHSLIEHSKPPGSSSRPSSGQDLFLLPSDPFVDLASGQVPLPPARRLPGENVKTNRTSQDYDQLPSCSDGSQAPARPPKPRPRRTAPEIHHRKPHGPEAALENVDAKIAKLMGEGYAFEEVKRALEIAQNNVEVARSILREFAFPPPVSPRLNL

Row | Compound | DC50 [1] | Dmax [2] | Dmax (THP-1)
1 | Cn1cnnc1[C@@H](c1cccc(-n2cc3c(C(F)(F)F)cc(CN4CCC(COCc5ccc(CN6CCN(c7ccc8c(c7)CN([C@@H]7CCC(=O)NC7=O)C8=O)CC6)cc5)CC4)cn3c2=O)c1)C1CCC1 [Compound 101] | 0.03 to 0.3 µM |  | 50 to 70%
2 | Cn1cnnc1CC1(c2cccc(-n3cc4c(C(F)(F)F)cc(CN5CC(OCCN6CCC(CN7CCN(c8ccc9c(c8)CN(C8CCC(=O)NC8=O)C9=O)CC7)CC6)C5)cn4c3=O)c2)COC1 (stereo not shown) [Compound 113] | > 10 µM |  | < 30%
3 | Cn1cnnc1[C@@H](c1cccc(-n2cc3c(C(F)(F)F)cc(CN4CC(OCCN5CCC(CN6CCN(c7ccc8c(c7)CN(C7CCC(=O)NC7=O)C8=O)CC6)CC5)C4)cn3c2=O)c1)C1CCC1 (stereo partly shown) [Compound 114] | > 10 µM | < 30% | 
4 | Cn1cnnc1[C@@H](c1cccc(-n2cc3c(C(F)(F)F)cc(CN4CCN(C(=O)CN5CCC(CN6CCN(c7ccc8c(c7)CN([C@@H]7CCC(=O)NC7=O)C8=O)CC6)CC5)CC4)cn3c2=O)c1)C1CCC1 [Compound 129] | > 10 µM | < 30% | 
5 | CN(C(=O)c1ccc(N2CCN(c3ccc4c(c3)CN([C@@H]3CCC(=O)NC3=O)C4=O)CC2)cc1)C1CCN(Cc2cc(C(F)(F)F)c3cn(-c4cccc([C@H](c5nncn5C)C5CCC5)c4)c(=O)n3c2)CC1 [Compound 137] | 0.03 to 0.3 µM | 30 to 50% | 
6 | CN(CCOC1CCN(Cc2cc(C(F)(F)F)c3cn(-c4cccc([C@H](c5nncn5C)C5CCC5)c4)c(=O)n3c2)CC1)C(=O)c1ccc(N2CCC(c3ccc4c(c3)CN([C@H]3CCC(=O)NC3=O)C4=O)CC2)cc1 [Compound 152] | < 0.03 µM | > 70% | 
7 | CN(C(=O)c1ccc(CN2CCN(c3ccc4c(c3)CN([C@@H]3CCC(=O)NC3=O)C4=O)CC2)cc1)C1CCN(Cc2cc(C(F)(F)F)c3cn(-c4cccc([C@H](c5nncn5C)C5CCC5)c4)c(=O)n3c2)CC1 [Compound 159] | > 10 µM |  | < 30%
8 | Cn1cnnc1[C@@H](c1cccc(-n2cc3c(C(F)(F)F)cc(CN4CCC(CCN5CCC(CC6CCN(c7ccc8c(c7)CN([C@@H]7CCC(=O)NC7=O)C8=O)CC6)CC5)CC4)cn3c2=O)c1)C1CCC1 [Compound 163] | > 10 µM | < 30% | 
9 | CN(CC1CCN(Cc2cc(C(F)(F)F)c3cn(-c4cccc(C5(Cc6nncn6C)COC5)c4)c(=O)n3c2)CC1)C(=O)c1ccc(N2CCN(c3ccc4c(c3)CN([C@@H]3CCC(=O)NC3=O)C4=O)CC2)cc1 [Compound 165] | 1 to 10 µM | 30 to 50% | 
10 | CO[C@H]1C[C@@](c2cccc(-n3cc4c(C(F)(F)F)cc(CN5CCC(CN(C)C(=O)c6ccc(N7CCN(c8ccc9c(c8)CN([C@@H]8CCC(=O)NC8=O)C9=O)CC7)cc6)CC5)cn4c3=O)c2)(c2nncn2C)C1 [Compound 167] | 1 to 10 µM | < 30% | 
11 | CO[C@H]1C[C@](c2cccc(-n3cc4c(C(F)(F)F)cc(CN5CCC(CN(C)C(=O)c6ccc(N7CCN(c8ccc9c(c8)CN([C@@H]8CCC(=O)NC8=O)C9=O)CC7)cc6)CC5)cn4c3=O)c2)(c2nncn2C)C1 [Compound 168] | > 10 µM | < 30% | 
12 | Cn1cnnc1[C@@H](c1cccc(-n2cc3c(C(F)(F)F)cc(CN4CCC(CC(=O)N5CCC(CC6CCN(c7ccc8c(c7)CN([C@@H]7CCC(=O)NC7=O)C8=O)CC6)CC5)CC4)cn3c2=O)c1)C1CCC1 [Compound 175] | > 10 µM |  | < 30%
13 | Cn1cnnc1[C@@H](c1cccc(-n2cc3c(C(F)(F)F)cc(CN4CCC(CC(=O)N5CCC(Cc6ccc(-c7ccc8c(c7)CN([C@@H]7CCC(=O)NC7=O)C8=O)cc6)CC5)CC4)cn3c2=O)c1)C1CCC1 [Compound 179] | 0.3 to 1 µM |  | 30 to 50%
14 | Cn1cnnc1[C@@H](c1cccc(-n2cc3c(C(F)(F)F)cc(CN4CCC(CC(=O)N5CCC(Cc6ccc(-c7ccc8c(c7)CN([C@H]7CCC(=O)NC7=O)C8=O)cc6)CC5)CC4)cn3c2=O)c1)C1CCC1 [Compound 180] | < 0.03 µM |  | > 70%
15 | Cn1cnnc1[C@@H](c1cccc(-n2cc3c(C(F)(F)F)cc(CN4CCC(CC(=O)N5CCC(c6ccc(-c7ccc8c(c7)CN([C@@H]7CCC(=O)NC7=O)C8=O)cc6)CC5)CC4)cn3c2=O)c1)C1CCC1 [Compound 181] | 0.3 to 1 µM |  | 30 to 50%
16 | CN(CC1CCN(Cc2cc3c(c(C(F)(F)F)c2)CN(c2cccc([C@H](c4nncn4C)C4CCC4)c2)C3=O)CC1)C(=O)c1ccc(N2CCN(c3ccc4c(c3)CN([C@@H]3CCC(=O)NC3=O)C4=O)CC2)cc1 [Compound 183] | 0.03 to 0.3 µM | 50 to 70% | 

Continued, in another order:

Row | DC50 [1] | Dmax [2] | Compound | Dmax (THP-1)
17 | 1 to 10 µM | 30 to 50% | Cn1cnnc1[C@@H](c1cccc(-n2cc3c(C(F)(F)F)cc(-c4nccn4CCOCCN4CCC(CN5CCN(c6ccc7c(c6)CN([C@@H]6CCC(=O)NC6=O)C7=O)CC5)CC4)cn3c2=O)c1)C1CCC1 [Compound 97] | 
18 | > 10 µM | < 30% | Cn1cnnc1CC1(c2cccc(-n3cc4c(C(F)(F)F)cc(-c5nccn5CCOCCN5CCC(CN6CCN(c7ccc8c(c7)CN([C@@H]7CCC(=O)NC7=O)C8=O)CC6)CC5)cn4c3=O)c2)COC1 [Compound 99] | 
19 | 0.03 to 0.3 µM | > 70% | Cn1cnnc1[C@@H](c1cccc(-n2cc3c(C(F)(F)F)cc(CN4CCC(COCc5ccc(CN6CCN(c7ccc8c(c7)CN([C@H]7CCC(=O)NC7=O)C8=O)CC6)cc5)CC4)cn3c2=O)c1)C1CCC1 [Compound 102] | 
20 | 0.03 to 0.3 µM |  | CN(CCO[C@@H]1CCCN(Cc2cc(C(F)(F)F)c3cn(-c4cccc([C@H](c5nncn5C)C5CCC5)c4)c(=O)n3c2)C1)C(=O)c1ccc(N2CCN(c3ccc4c(c3)CN([C@H]3CCC(=O)NC3=O)C4=O)CC2)cc1 [Compound 104] | 
21 | 0.3 to 1 µM |  | CN(CCO[C@H]1CCCN(Cc2cc(C(F)(F)F)c3cn(-c4cccc([C@H](c5nncn5C)C5CCC5)c4)c(=O)n3c2)C1)C(=O)c1ccc(N2CCN(c3ccc4c(c3)CN([C@H]3CCC(=O)NC3=O)C4=O)CC2)cc1 [Compound 106] | 
22 | < 0.03 µM | 50 to 70% | Cn1cnnc1[C@@H](c1cccc(-n2cc3c(C(F)(F)F)cc(CN4CCC(OCCc5ccc(CN6CCN(c7ccc8c(c7)CN([C@H]7CCC(=O)NC7=O)C8=O)CC6)cc5)CC4)cn3c2=O)c1)C1CCC1 [Compound 116] | 
23 | 0.03 to 0.3 µM |  | Cn1cnnc1[C@@H](c1cccc(-n2cc3c(C(F)(F)F)cc(CN4CCC(N5CCC(CN6CCN(c7ccc8c(c7)CN([C@H]7CCC(=O)NC7=O)C8=O)CC6)CC5)CC4)cn3c2=O)c1)C1CCC1 [Compound 136] | 
24 | 0.3 to 1 µM | < 30% | CN(C(=O)c1ccc(N2CCN(c3ccc4c(c3)CN([C@H]3CCC(=O)NC3=O)C4=O)CC2)cc1)C1CCN(Cc2cc(C(F)(F)F)c3cn(-c4cccc([C@H](c5nncn5C)C5CCC5)c4)c(=O)n3c2)CC1 [Compound 138] | 
25 | > 10 µM | < 30% | Cn1cnnc1[C@@H](c1cccc(-n2cc3c(C(F)(F)F)cc(COCCCN4CCC(CN5CCN(c6ccc7c(c6)CN([C@H]6CCC(=O)NC6=O)C7=O)CC5)CC4)cn3c2=O)c1)C1CCC1 [Compound 150] | 
26 | 0.03 to 0.3 µM | 50 to 70% | CN(CCOC1CCN(Cc2cc(C(F)(F)F)c3cn(-c4cccc([C@H](c5nncn5C)C5CCC5)c4)c(=O)n3c2)CC1)C(=O)c1ccc(N2CCC(c3ccc4c(c3)CN([C@@H]3CCC(=O)NC3=O)C4=O)CC2)cc1 [Compound 151] | 
27 | < 0.03 µM | > 70% | CN(C(=O)c1ccc(CN2CCN(c3ccc4c(c3)CN([C@H]3CCC(=O)NC3=O)C4=O)CC2)cc1)C1CCN(Cc2cc(C(F)(F)F)c3cn(-c4cccc([C@H](c5nncn5C)C5CCC5)c4)c(=O)n3c2)CC1 [Compound 160] | 
28 | < 0.03 µM | > 70% | Cn1cnnc1[C@@H](c1cccc(-n2cc3c(C(F)(F)F)cc(CN4CCC(CCN5CCC(CC6CCN(c7ccc8c(c7)CN([C@H]7CCC(=O)NC7=O)C8=O)CC6)CC5)CC4)cn3c2=O)c1)C1CCC1 [Compound 164] | 
29 | < 0.03 µM | > 70% | CN(CC1CCN(Cc2cc(C(F)(F)F)c3cn(-c4cccc(C5(Cc6nncn6C)COC5)c4)c(=O)n3c2)CC1)C(=O)c1ccc(N2CCN(c3ccc4c(c3)CN([C@H]3CCC(=O)NC3=O)C4=O)CC2)cc1 [Compound 166] | 
30 | 0.03 to 0.3 µM | 30 to 50% | CO[C@H]1C[C@@](c2cccc(-n3cc4c(C(F)(F)F)cc(CN5CCC(CN(C)C(=O)c6ccc(N7CCN(c8ccc9c(c8)CN([C@H]8CCC(=O)NC8=O)C9=O)CC7)cc6)CC5)cn4c3=O)c2)(c2nncn2C)C1 [Compound 169] | 
31 | < 0.03 µM | > 70% | Cn1cnnc1[C@@H](c1cccc(-n2cc3c(C(F)(F)F)cc(CN4CCC(CC(=O)N5CCC(CC6CCN(c7ccc8c(c7)CN([C@H]7CCC(=O)NC7=O)C8=O)CC6)CC5)CC4)cn3c2=O)c1)C1CCC1 [Compound 176] | 
32 | < 0.03 µM | 30 to 50% | Cn1cnnc1[C@@H](c1cccc(-n2cc3c(C(F)(F)F)cc(CN4CCC(CC(=O)N5CCC(c6ccc(-c7ccc8c(c7)CN([C@H]7CCC(=O)NC7=O)C8=O)cc6)CC5)CC4)cn3c2=O)c1)C1CCC1 [Compound 182] | 
33 | < 0.03 µM | > 70% | CN(CC1CCN(Cc2cc3c(c(C(F)(F)F)c2)CN(c2cccc([C@H](c4nncn4C)C4CCC4)c2)C3=O)CC1)C(=O)c1ccc(N2CCN(c3ccc4c(c3)CN([C@H]3CCC(=O)NC3=O)C4=O)CC2)cc1 [Compound 184] | 
34 | 0.3 to 1 µM | 30 to 50% | Cn1cnnc1[C@@H](c1cccc(N2Cc3c(cc(CN4CCC[C@H](OCc5ccc(CC6CCN(c7ccc8c(c7)CN([C@H]7CCC(=O)NC7=O)C8=O)CC6)cc5)C4)cc3C(F)(F)F)C2=O)c1)C1CCC1 [Compound 190] | 
35 | < 0.03 µM | > 70% | Cn1cnnc1CC1(c2cccc(-n3cc4c(C(F)(F)F)cc(CN5CCN(CCc6ccc(N7CCN(c8ccc9c(c8)CN([C@@H]8CCC(=O)NC8=O)C9=O)CC7)cc6)CC5)cn4c3=O)c2)COC1 [Compound 203] | 
